From ChEMBL document CHEMBL1201862, “PubChem BioAssay data set” (2004)
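Test compounds were applied to cells in 96-well plates for 48 hours at 5 doses. GI50 = concentration required for 50% inhibition of growth.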 Active and inactive are the calls of the source. Rule as the data show it: active = GI50 up to about 1.1 µM and inactive = higher.

Tests used:
Test in all cases: NCI-60 cell line screen, 48 h
[1] = system: OVCAR-5
[2] = system: IGROV-1
[3] = system: 786-0
[4] = system: SK-MEL-2
[5] = system: NCI-H226
[6] = system: MOLT-4
[7] = system: HOP-62
[8] = system: HT-29
[9] = system: A498
[10] = system: HCT-15
[11] = system: SK-MEL-5
[12] = system: SN12C
[13] = system: SR
[14] = system: CAKI-1
[15] = system: SF-539
[16] = system: UO-31
[17] = system: SK-OV-3
[18] = system: K562
[19] = system: SK-MEL-28
[20] = system: COLO 205

Row | Structure (SMILES) | GI50 [1] | GI50 [2] | GI50 [3] | GI50 [4] | GI50 [5] | GI50 [6] | GI50 [7] | GI50 [8] | GI50 [9] | GI50 [10] [µM] | GI50 [11] | GI50 [12] | GI50 [13] | GI50 [14] | GI50 [15] | GI50 [16] | GI50 [17] | GI50 [18] | GI50 [19] | GI50 [20]
1 | Cn1c(=O)c2c(ncn2Cc2ccc(O)c([N+](=O)[O-])c2)n(C)c1=O | > 100 µM (inactive) | > 100 µM (inactive) | > 100 µM (inactive) | > 100 µM (inactive) | > 100 µM (inactive) | > 100 µM (inactive) | > 100 µM (inactive) | > 100 µM (inactive) | > 100 µM (inactive) | > 100 | > 100 µM (inactive) | > 100 µM (inactive) | > 100 µM (inactive) | > 100 µM (inactive) | > 100 µM (inactive) | > 100 µM (inactive) | > 100 µM (inactive) | > 100 µM (inactive) | > 100 µM (inactive) | > 100 µM (inactive)
2 | COc1ccc(/C=C2\N/C(=N/N)N=C2Cl)cc1 | > 100 µM (inactive) | > 100 µM (inactive) | > 100 µM (inactive) | > 100 µM (inactive) | > 100 µM (inactive) | > 100 µM (inactive) | > 100 µM (inactive) | > 100 µM (inactive) | > 100 µM (inactive) | > 100 | > 100 µM (inactive) | > 100 µM (inactive) | > 100 µM (inactive) | > 100 µM (inactive) | > 100 µM (inactive) | > 100 µM (inactive) | > 100 µM (inactive) | > 100 µM (inactive) | > 100 µM (inactive) | > 100 µM (inactive)
3 | CC(=O)NC(Cc1ccc(OP(=O)(OCc2ccc([N+](=O)[O-])o2)N(C)CCCCCl)cc1)C(=O)NC(C)c1ccc(OCC2CCCCC2)c(C(N)=O)c1 (stereo not given) | 7.35 µM (inactive) | 2.7 µM (inactive) | 3.37 µM (inactive) | 3.08 µM (inactive) | 5.94 µM (inactive) | 3.53 µM (inactive) | 9.66 µM (inactive) | 2.25 µM (inactive) | 18.9 µM (inactive) | 20.4 | 1.61 µM (inactive) | 2.34 µM (inactive) | 2.21 µM (inactive) | 21.3 µM (inactive) | 2.08 µM (inactive) | 17.3 µM (inactive) | 11.5 µM (inactive) | 3.91 µM (inactive) | 2.12 µM (inactive) | 1.87 µM (inactive)
4 | C/C=C/[P+](c1ccccc1)(c1ccccc1)c1ccccc1 | 4.24 µM (inactive) | 2.11 µM (inactive) | 7.33 µM (inactive) | 1.82 µM (inactive) | 3.57 µM (inactive) | 2.42 µM (inactive) | 3.03 µM (inactive) | 0.914 µM (active) | 6.58 µM (inactive) | 25.5 | 0.378 µM (active) | 1.79 µM (inactive) | 0.381 µM (active) | > 68.1 µM (inactive) | 1.48 µM (inactive) | 26.7 µM (inactive) | 1.42 µM (inactive) | 0.0649 µM (active) | 1.29 µM (inactive) | 0.101 µM (active)
5 | CC(C)=CCC/C(C)=C/Cc1c2c(c3oc(-c4ccc(O)c(O)c4)c(O)c(=O)c3c1O)C=CC(C)(C)O2 | 7.18 µM (inactive) | 2.11 µM (inactive) | 1.85 µM (inactive) | 6.58 µM (inactive) | 6.22 µM (inactive) | 1.77 µM (inactive) | 4.45 µM (inactive) | 2.71 µM (inactive) | 6.32 µM (inactive) | 2.1 | 2.95 µM (inactive) | 5.98 µM (inactive) | 1.84 µM (inactive) | 1.78 µM (inactive) | 1.79 µM (inactive) | 3.44 µM (inactive) | 2.57 µM (inactive) | 2.44 µM (inactive) | 4.37 µM (inactive) | 1.64 µM (inactive)
6 | O=C1Nc2ccccc2/C1=N/Nc1ccccc1Cl | 51.8 µM (inactive) | 1.78 µM (inactive) | 10.6 µM (inactive) | 63.5 µM (inactive) | 53.2 µM (inactive) | 75.2 µM (inactive) | 11.1 µM (inactive) | > 100 µM (inactive) | 18.7 µM (inactive) | > 100 | 68.5 µM (inactive) | 21.7 µM (inactive) | 7.62 µM (inactive) | 15.7 µM (inactive) | 29 µM (inactive) | 18.7 µM (inactive) | 16.1 µM (inactive) | 43.5 µM (inactive) | > 100 µM (inactive) | 24.9 µM (inactive)
7 | CCCCCCCCCCCCCCCCOCC(Cl)CP(=O)(O)OP(=O)(O)OCC1OC(n2cnc3c(N)ncnc32)C(O)C1O (stereo not given) | > 100 µM (inactive) | > 100 µM (inactive) | > 100 µM (inactive) | > 100 µM (inactive) | > 100 µM (inactive) | > 100 µM (inactive) | > 100 µM (inactive) | > 100 µM (inactive) | > 100 µM (inactive) | > 100 | > 100 µM (inactive) | > 100 µM (inactive) | > 100 µM (inactive) | > 100 µM (inactive) | > 100 µM (inactive) | > 100 µM (inactive) | > 100 µM (inactive) | > 100 µM (inactive) | > 100 µM (inactive) | > 100 µM (inactive)
8 | O=[N+]([O-])c1cnc(N(CCO)CCO)s1 | > 100 µM (inactive) | > 100 µM (inactive) | > 100 µM (inactive) | > 100 µM (inactive) | > 100 µM (inactive) | > 100 µM (inactive) | > 100 µM (inactive) | > 100 µM (inactive) | > 100 µM (inactive) | > 100 | > 100 µM (inactive) | > 100 µM (inactive) | > 100 µM (inactive) | > 100 µM (inactive) | > 100 µM (inactive) | > 100 µM (inactive) | > 100 µM (inactive) | > 100 µM (inactive) | > 100 µM (inactive) | > 100 µM (inactive)
9 | Cc1ccc2c(O)cc(-c3ccc(Cl)cc3)nc2n1 | > 39.3 µM (inactive) | 5.69 µM (inactive) | 5.38 µM (inactive) | 3.98 µM (inactive) | 14.9 µM (inactive) | 1.2 µM (inactive) | 9.16 µM (inactive) | 3.3 µM (inactive) | 9.73 µM (inactive) | 3.31 | 3.47 µM (inactive) | 4.38 µM (inactive) | 4.33 µM (inactive) | 5.57 µM (inactive) | 5.16 µM (inactive) | 14.3 µM (inactive) | 6.64 µM (inactive) | 2.58 µM (inactive) | 9.66 µM (inactive) | 1.85 µM (inactive)
10 | Cc1ccccc1C(=O)N/N=C/c1ccc(Sc2nccn2C)c([N+](=O)[O-])c1 | > 100 µM (inactive) | 35.6 µM (inactive) | > 100 µM (inactive) | 68.7 µM (inactive) | > 100 µM (inactive) | 54.6 µM (inactive) | 80.2 µM (inactive) | 41.3 µM (inactive) | > 100 µM (inactive) | 66.8 | 36.4 µM (inactive) | > 100 µM (inactive) | 40 µM (inactive) | 78.9 µM (inactive) | > 100 µM (inactive) | > 100 µM (inactive) | > 100 µM (inactive) | 42.4 µM (inactive) | > 100 µM (inactive) | 56 µM (inactive)
11 | Cc1ccc(-c2cs/c(=N\c3ccccc3)n2NC(=O)c2ccncc2)cc1 | 40.8 µM (inactive) | 40.3 µM (inactive) | 48 µM (inactive) | 28.5 µM (inactive) | 28.4 µM (inactive) | 26.4 µM (inactive) | 39.4 µM (inactive) | 21 µM (inactive) | > 75.2 µM (inactive) | 42.5 | 18.7 µM (inactive) | 45.2 µM (inactive) | 34.8 µM (inactive) | 26.4 µM (inactive) | 69 µM (inactive) | 30.6 µM (inactive) | 33.7 µM (inactive) | 15 µM (inactive) | 36.6 µM (inactive) | 29.8 µM (inactive)
12 | N#CC1=C(N)N2C(=O)/C(=C/c3ccccc3O)N=C2S1 | 98.9 µM (inactive) | 29.8 µM (inactive) | > 100 µM (inactive) | > 100 µM (inactive) | > 100 µM (inactive) | 18.5 µM (inactive) | > 100 µM (inactive) | 37.7 µM (inactive) | > 100 µM (inactive) | 33.5 | 80 µM (inactive) | > 100 µM (inactive) | 23.6 µM (inactive) | 51.5 µM (inactive) | 28.8 µM (inactive) | 94.6 µM (inactive) | > 100 µM (inactive) | 26.1 µM (inactive) | > 100 µM (inactive) | > 100 µM (inactive)
13 | CCCCOC(=O)/C(CC(=O)C=C(C)C)=N\NS(=O)(=O)c1ccc(C)cc1 | > 100 µM (inactive) | > 100 µM (inactive) | > 100 µM (inactive) | > 100 µM (inactive) | > 100 µM (inactive) | > 100 µM (inactive) | > 100 µM (inactive) | > 100 µM (inactive) | > 100 µM (inactive) | 62.4 | > 100 µM (inactive) | > 100 µM (inactive) | 27.7 µM (inactive) | > 100 µM (inactive) | > 100 µM (inactive) | > 100 µM (inactive) | > 100 µM (inactive) | > 100 µM (inactive) | > 100 µM (inactive) | 46.1 µM (inactive)
14 | O=C1C(Cl)=C(Cl)C(=O)N1c1cccc(C(F)(F)F)c1 | > 100 µM (inactive) | > 100 µM (inactive) | > 100 µM (inactive) | > 100 µM (inactive) | > 100 µM (inactive) | 51.4 µM (inactive) | > 100 µM (inactive) | > 100 µM (inactive) | > 100 µM (inactive) | > 100 | > 100 µM (inactive) | > 100 µM (inactive) | 35.9 µM (inactive) | > 61.9 µM (inactive) | > 100 µM (inactive) | > 100 µM (inactive) | > 100 µM (inactive) | > 54.5 µM (inactive) | > 100 µM (inactive) | > 79.3 µM (inactive)
